These results are taken from patent publication US11129870B2, “Compositions and methods for uncoupling TrkB receptor from PLC gamma 1 for the treatment of epilepsy and anxiety-like disorder” (DUKE UNIVERSITY, priority 2010, dated 2021).

Where no end group is shown, it is not given here. [ ]: non-standard residue; d: D form. pY = N[C@@H](Cc1ccc(OP(=O)(O)O)cc1)C(=O)O

Holding throughout (type): in vivo, mouse
For test [1], the system named is PLCγ1. In words: p-PLCγ1 in brain of naive mice after intravenous peptide (western blot). How it is done:
An important issue with respect to usefulness of Tat-pTRKBY816 is whether, following peripheral administration, the peptide can inhibit PLCγ1 activation in the brain in vivo. To test this idea, adult C57/B6 mice underwent tail vein injection of vehicle (normal saline [NS]) or Tat-scrambled-pTrkY816 or Tat-pTrkBY816 (10 mg/kg, 2 mice per group). Animals were sacrificed 3 hours post administration, the hippocampus dissected and homogenate prepared for western blotting. […] These findings support the assertion that the peptide passes through the blood brain barrier and inhibits PLCγ1 activation in vivo.
Animals were anesthetized with pentobarbital (200 mg/kg i.p.) and decapitated, and the head was quickly immersed in liquid nitrogen for 4 s to rapidly cool the brain. The hippocampi were rapidly dissected on ice and homogenized in RIPA buffer, incubated on ice for 15 min, and centrifuged at 200,000×g for 10 min at 4° C. The supernatant was collected and stored at −80° C. until further analysis. […] The immunoreactivity of individual bands on western blots was measured by ImageJ software (National Institutes of Health) and normalized to PLCγ1, Akt or ERK contents. Equivalent protein loading among samples was monitored by β-actin (1:10000; Sigma) levels. […]

The subject of another test is Akt. In words: p-Akt in hippocampal lysates of naive mice after i.v. peptide. Particulars: 10 mg/kg i.v., 3 hr. How it is done:
(§1) Animals were anesthetized with pentobarbital (200 mg/kg i.p.) and decapitated, and the head was quickly immersed in liquid nitrogen for 4 s to rapidly cool the brain. The hippocampi were rapidly dissected on ice and homogenized in RIPA buffer, incubated on ice for 15 min, and centrifuged at 200,000×g for 10 min at 4° C. The supernatant was collected and stored at −80° C. until further analysis. TrkB was immunoprecipitated using TrkB antibody (1:1000, Millipore) and the lysates were incubated with 100 μL of protein A-Sepharose beads (Roche) overnight in 4° C. The beads/immune complexes were pelleted in a microcentrifuge and then resuspended in RIPA buffer and this procedure was repeated two additional times before adding 2×SDS PAGE sample buffer and boiled. After SDS PAGE, the gels were probed with TrkB and PLCγ1 antibody (1:1000, Cell signaling). Western blotting was conducted as previously described (He et al., 2010). Cell lysate and hippocampal homogenate were probed with p-PLCγ1 (pY783), PLCγ1, p-Akt (pS473), Akt, p-ERK (p44/p42) and ERK (1:1000, Cell signaling). The immunoreactivity of individual bands on western blots was measured by ImageJ software (National Institutes of Health) and normalized to PLCγ1, Akt or ERK contents. Equivalent protein loading among samples was monitored by β-actin (1:10000; Sigma) levels. […]

For another test, the system named is ERK. In words: p-ERK in hippocampal lysates of naive mice after i.v. peptide. Particulars: 10 mg/kg i.v., 3 hr. How it is done:
as §1

Test [2] concerns PLCγ1. In words: SE-induced activation of PLCγ1 in hippocampus, peptide given i.v. after SE. The following applies: 6 hr later. How it is done: Surgery and microinfusion studies provided in Examples 10-14 were performed as described here. Surgery and microinfusion of KA into right amygdala of adult mice was performed as previously described (Liu, G. et al., (2013) Neuron 79:31-38). Briefly, mice were anesthetized with pentobarbital (60 mg/kg, intraperitoneally [i.p.]) and placed in a stereotaxic frame. A guide cannula was stereotactically placed above the right amygdala (coordinates from bregma: AP=−1.2 mm; ML=3.0 mm). A bipolar electrode was placed in the left dorsal hippocampus (coordinates from bregma: AP=−2.0 mm; ML=−1.6 mm; DV=−1.5 mm). A ground electrode connected to a screw was placed in the skull above the cerebellum. After a postoperative recovery period of 7 days, the animal was gently restrained and an infusion cannula was inserted into the right amygdala through the guide cannula at the depth of 3.7 mm below dura. […]
Animals were anesthetized with pentobarbital (200 mg/kg i.p.) and decapitated, and the head was quickly immersed in liquid nitrogen for 4 s to rapidly cool the brain. […] The immunoreactivity of individual bands on western blots was measured by ImageJ software (National Institutes of Health) and normalized to PLCγ1, Akt or ERK contents. Equivalent protein loading among samples was monitored by β-actin (1:10000; Sigma) levels. […]

On to “YGRKKRRQRRR-LQNLAKASPVpYLDI (YGRKKRRQRRRLQNLAKASPV[pY]LDI) [pY816]”, for which the “reduction of p-PLCγ1 (pY783) immunoreactivity” value in the test with PLCγ1 [1] (10 mg/kg i.v., 3 hr, hippocampal lysates, in comparison to Scr) was around 50%. Besides, the “phospho-PLCγ1 in brain homogenate” value in the test on PLCγ1 [1] (10 mg/kg tail vein, 3 hours post administration, vs saline or scrambled peptide) is reported as “reduced the phosphor-PLCγ1”. The “p-Akt in hippocampal lysates” value in the test on Akt is on record as “neither p-Akt nor p-ERK was affected”. The “p-ERK in hippocampal lysates” value in the test on ERK is on record as “neither p-Akt nor p-ERK was affected”. Besides, the “inhibition of SE-induced activation of PLCγ1 (p-PLCγ1 pY783 to PLCγ1 ratio)” value in the test on PLCγ1 [2] (10 mg/kg i.v. immediately after diazepam) and in the test on PLCγ1 [2] (20 mg/kg i.v. immediately after diazepam) was around 75% in each case.
